Experimental findings from patent US20240293412A1, “NAMPT ACTIVATORS FOR TREATING METABOLIC AND NEUROLOGICAL DISORDERS” (The Board of Trustees of the University of Illinois, priority 2021, published 2024) are described below.

For one assay, the target named is NAMPT (Homo sapiens (Human), UniProt P43490). In words: NAMPT coupled enzyme activity assay. The format is biochemical. Particulars: NAMPT activation, Table 2; for Emax: read-out: Maximum activation (%).
For another assay, the system named is THP-1 cells. The experiment in a line: cells. Particulars: Homo sapiens, THP-1, 24 h; for Emax: read-out: Maximum activation (%).

A value given as a limit tells only on which side of the number the result lay.

Sequence of NAMPT (P43490 whole entry): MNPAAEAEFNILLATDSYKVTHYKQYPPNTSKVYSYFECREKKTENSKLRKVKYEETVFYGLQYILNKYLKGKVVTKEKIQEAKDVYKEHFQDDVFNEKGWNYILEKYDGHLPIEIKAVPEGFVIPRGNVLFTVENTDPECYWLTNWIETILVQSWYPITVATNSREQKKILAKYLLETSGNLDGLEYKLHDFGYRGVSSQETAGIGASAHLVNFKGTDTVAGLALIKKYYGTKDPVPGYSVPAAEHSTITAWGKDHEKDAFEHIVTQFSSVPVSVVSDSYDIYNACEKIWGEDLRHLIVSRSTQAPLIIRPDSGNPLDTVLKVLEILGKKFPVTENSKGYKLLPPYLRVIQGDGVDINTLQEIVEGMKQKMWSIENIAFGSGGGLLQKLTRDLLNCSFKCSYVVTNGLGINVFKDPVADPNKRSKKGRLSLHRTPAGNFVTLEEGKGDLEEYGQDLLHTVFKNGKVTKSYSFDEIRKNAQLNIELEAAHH

With `CSc1ccc(CNC(=O)C2CCN(c3ncnc4nn(-c5ccc(C)cc5)cc34)CC2)cc1`, at NAMPT, the EC50 is 9.4 µM and the Emax was 240%.

On to `Cc1ccc(-n2cc3c(N4CCCC(C(=O)NCc5cc[nH]n5)C4)ncnc3n2)cc1` (stereo not drawn), for which the EC50 on NAMPT is above 10 µM.

Take `O=C(NCc1ccc2sccc2c1)[C@H]1CCCN(c2ncnc3nn(-c4ccc(C(F)(F)F)cc4)cc23)C1`: in the assay with THP-1 cells, the EC50 is 0.74 µM and the Emax is 150%.

On to `Cc1ccc(-n2cc3c(N4CCCC(C(=O)NCc5ccc(N(C)C)cc5)C4)ncnc3n2)cc1` (stereo not drawn), for which, on NAMPT, the EC50 worked out at 0.16 µM and the Emax amounted to 186%.

Regarding `CSc1ccc(CNC(=O)[C@H]2CCCN(c3ncnc4nn(-c5ccc(C)cc5)cc34)C2)cc1`, in the assay on THP-1 cells, the EC50 stood at 3.2 µM and the Emax stood at 202%.
